A short description of one assay: Ability to bind to the […] integrin expressed as inhibitory concentration against ADP-stimulated aggregation of human gel-filtered platelets.
For the compound `Cc1cnc(NCc2ccc3c(n2)NCCC3)c(=O)n1CC(=O)N[C@@H](CC(=O)O)c1cccc(F)c1` [(S)-3-(3-Fluoro-phenyl)-3-(2-{6-methyl-2-oxo-3-[(5,6,7,8-tetrahydro-[1,8]naphthyridin-2-ylmethyl)-amino]-2H-pyrazin-1-yl}-acetylamino)-propionic acid], the IC50 (usually the point on the concentration scale where inhibition reaches its midpoint) was more than 3 µM.

`O=C(O)C[C@H](NC(=O)Cn1c(-c2ccccc2)c(Cl)nc(NCc2ccc3c(n2)NCCC3)c1=O)c1cccc(F)c1` [(S)-3-(2-{5-Chloro-2-oxo-6-phenyl-3-[(5,6,7,8-tetrahydro-[1,8]naphthyridin-2-ylmethyl)-amino]-2H-pyrazin-1-yl}-acetylamino)-3-(3-fluoro-phenyl)-propionic acid] gave an IC50 of more than 3 µM.

Compound `O=C(O)C[C@H](NC(=O)Cn1c(C2CC2)cnc(NCc2ccc3c(n2)NCCC3)c1=O)c1cccnc1` [(S)-3-(2-{6-Cyclopropyl-2-oxo-3-[(5,6,7,8-tetrahydro-[1,8]naphthyridin-2-ylmethyl)-amino]-2H-pyrazin-1-yl}-acetylamino)-3-pyridin-3-yl-propionic acid] showed an IC50 of more than 3 µM.

As for `O=C(O)C[C@H](NC(=O)Cn1c(C2CC2)cnc(NCc2ccc3c(n2)NCCC3)c1=O)c1cccc(F)c1` [(S)-3-(2-{6-Cyclopropyl-2-oxo-3-[(5,6,7,8-tetrahydro-[1,8]naphthyridin-2-ylmethyl)-amino]-2H-pyrazin-1-yl}-acetylamino)-3-(3-fluoro-phenyl)-propionic acid], the IC50 was more than 3 µM.

In the case of `O=C(O)C[C@H](NC(=O)Cn1c(C2CC2)cnc(NCc2ccc3c(n2)NCCC3)c1=O)c1ccc2c(c1)OCO2` [(S)-3-Benzo[1,3]dioxol-5-yl-3-(2-{6-cyclopropyl-2-oxo-3-[(5,6,7,8-tetrahydro-[1,8]naphthyridin-2-ylmethyl)-amino]-2H-pyrazin-1-yl}-acetylamino)-propionic acid], the IC50 was more than 3 µM.

In turn, `O=C(O)C[C@H](NC(=O)Cn1c(C2CC2)c(Cl)nc(NCc2ccc3c(n2)NCCC3)c1=O)c1cccnc1` [(S)-3-(2-{5-Chloro-6-cyclopropyl-2-oxo-3-[(5,6,7,8-tetrahydro-[1,8]naphthyridin-2-ylmethyl)-amino]-2H-pyrazin-1-yl}-acetylamino)-3-pyridin-3-yl-propionic acid] gave an IC50 of more than 3 µM.

`O=C(O)C[C@H](NC(=O)Cc1cccc(CCc2ccc3c(n2)NCCC3)c1)c1cccnc1` [3-(S)-Pyridin-3-yl-3-(2-{3-[2-(5,6,7,8-tetrahydro-[1,8]naphthyridin-2-yl)-ethyl]-phenyl}-acetylamino)-propionic acid] displayed an IC50 of more than 3 µM.

`O=C(O)C[C@H](NC(=O)Cn1c(C2CC2)c(Cl)nc(NCc2ccc3c(n2)NCCC3)c1=O)c1cccc(F)c1` [(S)-3-(2-{5-Chloro-6-cyclopropyl-2-oxo-3-[(5,6,7,8-tetrahydro-[1,8]naphthyridin-2-ylmethyl)-amino]-2H-pyrazin-1-yl}-acetylamino)-3-(3-fluoro-phenyl)-propionic acid] registered an IC50 of more than 3 µM.

Take `Cc1c(Cl)nc(NCc2ccc3c(n2)NCCC3)c(=O)n1CC(=O)N[C@@H](CC(=O)O)c1cccc(F)c1` [(S)-3-(2-{5-Chloro-6-methyl-2-oxo-3-[(5,6,7,8-tetrahydro-[1,8]naphthyridin-2-ylmethyl)-amino]-2H-pyrazin-1-yl}-acetylamino)-3-(3-fluoro-phenyl)-propionic acid]: the IC50 was more than 3 µM.

`CCc1cnc(NCc2ccc3c(n2)NCCC3)c(=O)n1CC(=O)N[C@@H](CC(=O)O)c1cccc(F)c1` [(S)-3-(2-{6-Ethyl-2-oxo-3-[(5,6,7,8-tetrahydro-[1,8]naphthyridin-2-ylmethyl)-amino]-2H-pyrazin-1-yl}-acetylamino)-3-(3-fluoro-phenyl)-propionic acid] registered an IC50 of more than 3 µM.

Take `CCc1c(Cl)nc(NCc2ccc3c(n2)NCCC3)c(=O)n1CC(=O)N[C@@H](CC(=O)O)c1cccc(F)c1` [(S)-3-(2-{5-Chloro-6-ethyl-2-oxo-3-[(5,6,7,8-tetrahydro-[1,8]naphthyridin-2-ylmethyl)-amino]-2H-pyrazin-1-yl}-acetylamino)-3-(3-fluoro-phenyl)-propionic acid]: the IC50 was more than 3 µM.

`O=C(O)C[C@H](NC(=O)CNC(=O)CCCc1ccc2c(n1)NCCC2)c1cccnc1` [(S)-3-Pyridin-3-yl-3-[2-(4-5,6,7,8-tetrahydro-[1,8]naphthyridin-2-yl-butyrylamino)-acetylamino]-propionic acid] gave an IC50 of more than 3 µM.

Turning to `O=C(O)C[C@H](NC(=O)Cn1c(C2CC2)c(Cl)nc(NCc2ccc3c(n2)NCCC3)c1=O)c1ccc2c(c1)OCC2` [(S)-3-(2-{5-Chloro-6-cyclopropyl-2-oxo-3-[(5,6,7,8-tetrahydro-[1,8]naphthyridin-2-ylmethyl)-amino]-2H-pyrazin-1-yl}-acetylamino)-3-(2,3-dihydro-benzofuran-6-yl)-propionic acid], the IC50 was more than 3 µM.

`O=C(O)C[C@H](NC(=O)Cn1c(C2CC2)c(Cl)nc(NCc2ccc3c(n2)NCCC3)c1=O)c1cnc2ccccc2c1` [(S)-3-(2-{5-Chloro-6-cyclopropyl-2-oxo-3-[(5,6,7,8-tetrahydro-[1,8]naphthyridin-2-ylmethyl)-amino]-2H-pyrazin-1-yl}-acetylamino)-3-quinolin-3-yl-propionic acid]: the IC50 is more than 3 µM.

`O=C(O)C[C@H](NC(=O)CN1CC[C@H](CCc2ccc3c(n2)NCCC3)C1=O)c1cccnc1` [3-(2-{(S)-2-Oxo-3-[2-(5,6,7,8-tetrahydro-[1,8]naphthyridin-2-yl)-ethyl]-pyrrolidin-1-yl}-acetylamino)-3-(S)-pyridin-3-yl-propionic acid] had an IC50 of more than 3 µM.

Another assay in a line: Ability to bind to the alpha IIb beta-3 integrin expressed as inhibitory concentration against ADP-stimulated aggregation of human gel-filtered platelets.
The compound `Cc1cnc(NCc2ccc3c(n2)NCCC3)c(=O)n1CC(=O)N[C@@H](CC(=O)O)c1cccnc1` [3-(2-{6-Methyl-2-oxo-3-[(5,6,7,8-tetrahydro-[1,8]naphthyridin-2-ylmethyl)-amino]-2H-pyrazin-1-yl}-acetylamino)-3-(S)-pyridin-3-yl-propionic acid] yielded a 50% inhibitory concentration (IC50) of more than 3 µM.

The compound `O=C(O)C[C@H](NC(=O)Cn1c(C2CC2)ccc(NCc2ccc3c(n2)NCCC3)c1=O)c1cccnc1` [3-(2-{6-Cyclopropyl-2-oxo-3-[(5,6,7,8-tetrahydro-[1,8]naphthyridin-2-ylmethyl)-amino]-2H-pyridin-1-yl}-acetylamino)-3-(S)-pyridin-3-yl-propionic acid] registered an IC50 of more than 3 µM.

In the case of `CCCc1ccc(NCc2ccc3c(n2)NCCC3)c(=O)n1CC(=O)N[C@@H](CC(=O)O)c1cccnc1` [3-(2-{2-Oxo-6-propyl-3-[(5,6,7,8-tetrahydro-[1,8]naphthyridin-2-ylmethyl)-amino]-2H-pyridin-1-yl}-acetylamino)-3-(S)-pyridin-3-yl-propionic acid], the IC50 was more than 3 µM.

The compound `O=C(O)C[C@H](NC(=O)CN1CCCC(CCc2ccc3c(n2)NCCC3)C1=O)c1cccnc1` (stereo partly drawn) [3-(2-{2-Oxo-3-[2-(5,6,7,8-tetrahydro-[1,8]naphthyridin-2-yl)-ethyl]-piperidin-1-yl}-acetylamino)-3-(S)-pyridin-3-yl-propionic acid] showed an IC50 of more than 3 µM.

`O=C(O)C[C@H](NC(=O)Cn1c(C2CC2)ccc(NCc2ccc3c(n2)NCCC3)c1=O)c1cccc(F)c1` [(S)-3-(2-{6-Cyclopropyl-2-oxo-3-[(5,6,7,8-tetrahydro-[1,8]naphthyridin-2-ylmethyl)-amino]-2H-pyridin-1-yl}-acetylamino)-3-(3-fluoro-phenyl)-propionic acid] had an IC50 of more than 3 µM.

The compound `O=C(O)C[C@H](NC(=O)Cn1c(C2CC2)ccc(NCc2ccc3c(n2)NCCC3)c1=O)c1ccc2c(c1)OCC2` [(S)-3-(2-{6-Cyclopropyl-2-oxo-3-[(5,6,7,8-tetrahydro-[1,8]naphthyridin-2-ylmethyl)-amino]-2H-pyridin-1-yl}-acetylamino)-3-(2,3-dihydro-benzofuran-6-yl)-propionic acid] showed an IC50 of more than 3 µM.

`C#C[C@H](CC(=O)O)NC(=O)Cn1c(C2CC2)ccc(NCc2ccc3c(n2)NCCC3)c1=O` [(S)-3-(2-{6-Cyclopropyl-2-oxo-3-[(5,6,7,8-tetrahydro-[1,8]naphthyridin-2-ylmethyl)-amino]-2H-pyridin-1-yl}-acetylamino)-pent-4-ynoic acid] displayed a half-maximal inhibitory concentration (IC50) of more than 3 µM.

`O=C(O)C[C@H](NC(=O)Cn1cccc(NCc2ccc3c(n2)NCCC3)c1=O)c1cccnc1` [3-(2-{2-Oxo-3-[(5,6,7,8-tetrahydro-[1,8]naphthyridin-2-ylmethyl)-amino]-2H-pyridin-1-yl}-acetylamino)-3-(S)-pyridin-3-yl-propionic acid] had an IC50 of more than 3 µM.

For the compound `Cc1ccc(NCc2ccc3c(n2)NCCC3)c(=O)n1CC(=O)N[C@@H](CC(=O)O)c1cccnc1` [3-(2-{6-Methyl-2-oxo-3-[(5,6,7,8-tetrahydro-[1,8]naphthyridin-2-ylmethyl)-amino]-2H-pyridin-1-yl}-acetylamino)-3-(S)-pyridin-3-yl-propionic acid], the IC50 was more than 3 µM.

The values above are taken from BindingDB's records for doi:10.1016/s0960-894x(03)00254-3 (Merck Research Laboratories, 2003).
